From paper PMC9729598 (Bioorganic Chemistry, 2022)

Test system: SARS-CoV-2 (wuhan-HU-1 variant)
Format: cell-based

SMILES: C=C(C)[C@@H]1CC[C@]2(C(=O)O)CC[C@]3(C)[C@H](CC[C@@H]4[C@@]5(C)CC[C@H](O)C(C)(C)[C@@H]5CC[C@]43C)[C@@H]12 [BA, Betulinic acid]
- anti-SARS-CoV-2 activity: virtually inactive
